In patent publication US10940139B2, “Compounds that interact with the Ras superfamily for the treatment of cancers, inflammatory diseases, rasopathies, and fibrotic disease” (Shy Therapeutics LLC, priority 2017, dated 2021):

Tested on: MIA-PACA2 pancreatic cancer cell lines
Assay: Cell proliferation assay (CellTiter 96 AQueous One)
Assay type: cell-based
Conditions: Homo sapiens, MIA PaCa-2; MIA-PACA2, same assay as the % inhibition (standard conditions)

`Oc1nc(-c2ccccn2)nc2c(-c3cc(Cl)cc(Cl)c3)csc12` [drawing 1724] and `Oc1nc(-c2ccccn2)nc2c(-c3ccccc3Cl)csc12` [drawing 1582] fall in the same range of IC50: 100 to 500 nM for the first, 100 to 500 nM for the second.

Compared with `Oc1nc(-c2ccccn2)nc2c(Br)csc12` [drawing 1562], `CC(C)(C)c1ccc(-c2csc3c(O)nc(-c4ccccn4)nc23)cc1` [drawing 1723] is lower in IC50: 501 to 1000 nM for the first, 100 to 500 nM for the second. The second is the more potent here.

Same assay, conditions: Homo sapiens, MIA PaCa-2; at 30 μM, MIA-PACA2

`Cc1ccc(O)c(CN(C)Cc2nccn2Cc2ccccc2)n1` [drawing 1521] and `Cc1nc(-c2ccccn2)nc(O)c1CCC(=O)NC1CCc2ccccc21` (centres unmarked) [drawing 1504] fall in the same range of inhibition at 30 µM: 76 to 100% for the first, 76 to 100% for the second.

`Oc1nc(-c2ccccn2)nc2c(-c3cc(Cl)cc(Cl)c3)csc12` [drawing 1724] and `Oc1nc(-c2ccccn2)nc2c(-c3ccccc3Cl)csc12` [drawing 1582] fall in the same range of inhibition at 30 µM: 76 to 100% for the first, 76 to 100% for the second.

First: CC1(N)CCN(C(=O)c2csc3c(O)nc(-c4ccccn4)nc23)CC1 [drawing 1573]
Second: CCOCCC1CCN(C(=O)c2csc3c(O)nc(-c4ccccn4)nc23)CC1 [drawing 1565]
The inhibition at 30 µM of the first is lower: 1 to 25% for the first, 76 to 100% for the second.

First: CC(C)C(=O)Nc1nc(CC(=O)Nc2nnc(-c3ccccn3)[nH]2)cs1 [drawing 1453]
Second: COc1cccc(CC(=O)Nc2nnc(-c3ccccn3)[nH]2)c1 [drawing 1390]
The inhibition at 30 µM of the first is higher: 76 to 100% for the first, 25 to 50% for the second.

Compared with `Oc1nc(-c2ccccn2)nc2sc3c(c12)CCNC3` [drawing 1727], `Oc1nc(-c2ccccn2)nc2sc3c(c12)CCCNC3` [drawing 1728] is lower in inhibition at 30 µM: 76 to 100% for the first, 25 to 50% for the second.

`Oc1nc(-c2ccccn2)nc2c(-c3ccc(OC4CCOC4)cc3)csc12` (centres unmarked) [drawing 1738] and `CC(C)(C)c1ccc(-c2csc3c(O)nc(-c4ccccn4)nc23)cc1` [drawing 1723] fall in the same range of inhibition at 30 µM: 76 to 100% for the first, 76 to 100% for the second.

`Oc1nc(-c2ccccn2)nc2c(Br)csc12` [drawing 1562] and `Cc1sc2c(N)nc(-c3ccccn3)nc2c1Br` [drawing 1769] fall in the same range of inhibition at 30 µM: 76 to 100% for the first, 76 to 100% for the second.

`CC(C)(O)c1ccc(-c2csc3c(O)nc(-c4ccccn4)nc23)c(F)c1` [drawing 1756] and `Oc1nc(-c2ccccn2)nc2c(-c3ccc(F)cc3F)csc12` [drawing 1747] fall in the same range of inhibition at 30 µM: 76 to 100% for the first, 76 to 100% for the second.

First: O=C(Nc1nnc(-c2ccccn2)[nH]1)c1ccc2ccccc2n1 [drawing 1401]
Second: Cc1cccc(C(=O)Nc2nnc(-c3ccccn3)[nH]2)n1 [drawing 1436]
The inhibition at 30 µM of the first is lower: 25 to 50% for the first, 51 to 75% for the second.

`Nc1nc(O)c2scc(Br)c2n1` [drawing 1557] and `Nc1nc(O)c2nc[nH]c2n1` [drawing 1629] fall in the same range of inhibition at 30 µM: 1 to 25% for the first, 1 to 25% for the second.

`Oc1nc(-c2ccccn2)nc2c(-c3cnc4ccccc4c3)csc12` [drawing 1784] and `Nc1nc(-c2ccccn2)nc2c(-c3ccccc3)csc12` [drawing 1735] fall in the same range of inhibition at 30 µM: 76 to 100% for the first, 76 to 100% for the second.

`O=C(c1csc2c(O)nc(-c3ccccn3)nc12)N1CCN(Cc2ccccc2)CC1` [drawing 1655] and `Cc1ccccc1N1CCN(C(=O)c2csc3c(O)nc(-c4ccccn4)nc23)CC1` [drawing 1633] fall in the same range of inhibition at 30 µM: 76 to 100% for the first, 76 to 100% for the second.

First: CC(Oc1ccc(C(=O)Nc2nnc(-c3ccccn3)[nH]2)cn1)c1ccccc1 (centres unmarked) [drawing 1425]
Second: COc1cn(-c2ccccc2)nc1C(=O)Nc1nnc(-c2ccccn2)[nH]1 [drawing 1466]
The inhibition at 30 µM of the first is higher: 76 to 100% for the first, 51 to 75% for the second.

First: NC(=O)C1CCCN(c2nc(-c3ccccn3)nc3scc(-c4ccccc4)c23)C1 (centres unmarked) [drawing 1624]
Second: O=C1CN(c2nc(-c3ccccn3)nc3scc(-c4ccccc4)c23)CCN1 [drawing 1593]
The inhibition at 30 µM of the first is higher: 76 to 100% for the first, 1 to 25% for the second.

`O=C(CN1CCN(c2nc(-c3ccccn3)nc3scc(-c4ccccc4)c23)CC1)N1CCCC1` [drawing 1620] and `O=C(C1CCN(c2nc(-c3ccccn3)nc3scc(-c4ccccc4)c23)CC1)N1CCCCC1` [drawing 1622] fall in the same range of inhibition at 30 µM: 76 to 100% for the first, 76 to 100% for the second.

First: c1ccc(-c2nc(N3CCOCC3)c3ccsc3n2)nc1 [drawing 1588]
Second: O=C(NCCc1cncs1)c1csc2nc(-c3ccccn3)nc(N3CCOCC3)c12 [drawing 1643]
The inhibition at 30 µM of the first is lower: 51 to 75% for the first, 76 to 100% for the second.

`COc1ccc(C2CN(C(=O)c3csc4c(O)nc(-c5ccccn5)nc34)CCO2)cc1` (centres unmarked) [drawing 1661] and `O=C(c1csc2c(O)nc(-c3ccccn3)nc12)N1CCOC(c2cccc(Cl)c2)C1` (centres unmarked) [drawing 1663] fall in the same range of inhibition at 30 µM: 76 to 100% for the first, 76 to 100% for the second.

`CC(O)CNc1nc(-c2ccccn2)nc2scc(-c3ccccc3)c12` (centres unmarked) [drawing 1513] and `Cc1sc2[nH]c(-c3ccccn3)nc(=O)c2c1-c1ccccc1` [drawing 1493] fall in the same range of inhibition at 30 µM: 76 to 100% for the first, 76 to 100% for the second.

`COC(=O)c1cc(NCc2nc(CC(C)C)no2)ccc1Cl` [drawing 1518] and `Cc1nc(-c2ccccn2)nc(O)c1CCC(=O)Nc1ccc(C(C)C)cc1` [drawing 1505] fall in the same range of inhibition at 30 µM: 76 to 100% for the first, 76 to 100% for the second.

`CC(C)C1=C(O)C2(CC2c2ccc(-c3ccccc3)cc2)C(C)CC1` (centres unmarked) [drawing 1540] and `Oc1ccc(C2(c3cccc(Cl)c3)CCCC2)cc1` [drawing 1525] fall in the same range of inhibition at 30 µM: 76 to 100% for the first, 76 to 100% for the second.

`O=C(c1csc2c(O)nc(-c3ccccn3)nc12)N1CCC(c2cccnc2)CC1` [drawing 1571] and `O=C(c1csc2c(O)nc(-c3ccccn3)nc12)N1CCOC(c2ccccc2Cl)C1` (centres unmarked) [drawing 1662] fall in the same range of inhibition at 30 µM: 76 to 100% for the first, 76 to 100% for the second.

`COc1ccc(CCC(=O)N2CCCc3c(O)nc(-c4ccccn4)nc32)cc1` [drawing 1545] and `O=C(CCCc1cccnc1)N1CCCc2c(O)nc(-c3ccccn3)nc21` [drawing 1556] fall in the same range of inhibition at 30 µM: 76 to 100% for the first, 76 to 100% for the second.

First: COc1ccc(CCNC(=O)c2csc3nc(-c4ccccn4)nc(N4CCS(=O)(=O)CC4)c23)cn1 [drawing 1729]
Second: O=C(NCCc1cnc(O)nc1)c1csc2nc(-c3ccccn3)nc(N3CCS(=O)(=O)CC3)c12 [drawing 1730]
The inhibition at 30 µM of the first is higher: 51 to 75% for the first, 1 to 25% for the second.

`O=C(Nc1nc(-c2ccccn2)cs1)c1ccccn1` [drawing 1480] and `O=C(Nc1nnc(-c2ccccn2)[nH]1)c1csc(-c2ccco2)n1` [drawing 1457] fall in the same range of inhibition at 30 µM: 76 to 100% for the first, 76 to 100% for the second.

`COC(=O)c1cccc(CN2CCC(CSc3ccccc3)C2)c1C#N` (centres unmarked) [drawing 1517] and `CS(=O)(=O)N1CCCc2cc(C(=O)Nc3nnc(-c4ccccn4)[nH]3)ccc21` [drawing 1469] fall in the same range of inhibition at 30 µM: 76 to 100% for the first, 76 to 100% for the second.

First: Nc1nc(O)c2scc(C(=O)N3CCC(N4CCCC4=O)CC3)c2n1 [drawing 1559]
Second: COc1ccc(N2CCN(C(=O)c3csc4c(O)nc(-c5ccccn5)nc34)CC2)cc1O [drawing 1695]
The inhibition at 30 µM of the first is lower: 25 to 50% for the first, 76 to 100% for the second.

`CC1CCc2sc(C(=O)Nc3nnc(-c4ccccn4)[nH]3)cc2C1` (centres unmarked) [drawing 1443] and `COc1ccccc1-c1cc(C(=O)Nc2nnc(-c3ccccn3)[nH]2)no1` [drawing 1451] fall in the same range of inhibition at 30 µM: 76 to 100% for the first, 76 to 100% for the second.

First: N#CC1(c2ccc(C(=O)N3CCCC3CO)cc2)CC1 (centres unmarked) [drawing 1537]
Second: O=C(c1ccc(=O)[nH]n1)N1CCCc2c(O)nc(-c3ccccn3)nc21 [drawing 1548]
The inhibition at 30 µM of the first is lower: 51 to 75% for the first, 76 to 100% for the second.

`COc1ccc(NC(=O)CCc2c(C)nc(-c3ccccn3)nc2O)cn1` [drawing 1501] and `COCCN(CCOC)c1nc(-c2ccccn2)nc2scc(C(=O)NCCc3ccc(OC)nc3)c12` [drawing 1685] fall in the same range of inhibition at 30 µM: 76 to 100% for the first, 76 to 100% for the second.

`NC(=O)C1(CNc2nc(-c3ccccn3)nc3c2CCC3)CCCC1` [drawing 1514] and `O=C(Nc1nnc(-c2ccccn2)[nH]1)C1CCCN(c2cnccn2)C1` (centres unmarked) [drawing 1439] fall in the same range of inhibition at 30 µM: 76 to 100% for the first, 76 to 100% for the second.

For `COc1ccc(F)cc1-c1csc2c(O)nc(-c3ccccn3)nc12` [drawing 1750], the inhibition at 30 µM was 76 to 100%.
